Measurements published in patent publication EP4644383A1 (Jiangsu Yahong Meditech Co., Ltd., priority 2022, dated 2024).
Where two headings read alike, the source gives them in different places.

Columns and labels:
FGFR4 = target: T1, FGFR4 (Homo sapiens, UniProt P22455); assay: FGFR4 kinase activity inhibition assay (LanthaScreen TR-FRET); type: biochemical
T1 construct: FGFR4's cytoplasmic domain [460-802 (terminal) amino acids]; purchased Carna 08-136
Procedure, shortened: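 GST-tagged cytoplasmic domains (FGFR2 aa 399-821; FGFR4 aa 460-802) were preincubated 10 min at 23 °C with compound (top 1 µM, threefold dilutions). Then 28 nM fluorescein-poly GT and 28 µM ATP were added for 30 min at 23 °C in HEPES pH 7.5 buffer. Tb-PY20 TR-FRET 520/495 ratio gave % inhibition versus DMSO and no-enzyme controls.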

[1] = test system: Ba/F3-FGFR3-BAIAP2L1 cells; assay: Inhibition of proliferation activity of Ba/F3-FGFR3-BAIAP2L1 cells (CellTiter-Glo); type: cell-based; conditions: for IC50: read-out: IC50 (nM) Ba/F3-FGFR3-BAIAP2L1; for Selectivity (X) FGFR1/FGFR3: ratio of IC50 Ba/F3-BCR-FGFR1 to IC50 Ba/F3-FGFR3-BAIAP2L1
Description: The present experiment used CellTiter-Glo® Luminescent Cell Viability Assay (Promega: G7573) kit, which was a homogeneous cell viability detection method and determined the cell viability of cultured cells by quantifying ATP. • ① Ba/F3-BCR-FGFR1 or Ba/F3-FGFR3-BAIAP2L1 cells were cultured in 1640 complete medium (Gibco: 11879020) (10% FBS (Gibco: 10091-148)+1% Pen Strep (Gibco: 15140122)) under the condition of 37°C and 5% CO2. • (2) The cells in logarithmic growth phase were harvested and counted using a […]. The trypan blue exclusion method was used to detect cell viability to ensure the cell viability was above 90%. • ③ The cell density was adjusted using 1640 complete medium, and then, the cells were seeded into a 96-well cell culture plate at 90 µL/well with a total of 2000 cells. • ④ A 10-fold drug solution was prepared starting from a maximum drug concentration of 10 µM and 4-fold serially diluted into10 concentrations. […] The luminescence values were read to collect the data. • ⑩ The data were analyzed using XLFit excel plugin version 5.5.0.5, and fitted with non-linear S-curve regression to obtain the dose-response curves and thus calculate the IC50 values. Y = Bottom + (Top-Bottom)/((1+(IC50/X))^(∧) HillSlope [formula]
(§1) "Top" refers to the maximum response, "Bottom" refers to the minimum response, and "HillSlope" refers to the slope of the curve.
"Max" represents the average value of the cell control+DMSO, and "Min" represents the average value of the medium control+DMSO.

[2] = test system: RT112 cells (bladder cancer cells); assay: Inhibition of proliferation activity of RT112 cells (CellTiter-Glo); type: cell-based; conditions: Homo sapiens, read-out: IC50 (nM) RT112
Description: The present experiment used CellTiter-Glo® Luminescent Cell Viability Assay (Promega: G7573) kit, which was a homogeneous cell viability detection method and determined the cell viability of cultured cells by quantifying ATP. • ① RT112 cells were cultured in MEM complete medium (Gibco: 51200038) (10% FBS (Gibco: 10091-148)+1% Pen Strep (Gibco: 15140122)+1% NEAA (Gibco: 11140050)) under the condition of 37°C and 5% CO2. • (2) The cells in logarithmic growth phase were harvested and counted using a […]. The trypan blue exclusion method was used to detect cell viability to ensure the cell viability was above 90%. • ③ The cell density was adjusted using MEM complete medium, and then, the cells were seeded into a 96-well cell culture plate at 90 µL/well with a total of 3000 cells. • ④ The 96-well plate with the cells was placed under the condition of 37°C and 5% CO2 to be cultured for 24 hours. • ⑤ 24 hours later, a 10-fold drug solution was prepared starting from a maximum drug concentration of 10 µM and 4-fold serially diluted into10 concentrations. Then, 10 µL of each of the serially diluted compounds was transferred to the corresponding experimental wells of a 96-well cell plate, with two replicates for each drug concentration. • ⑥ The 96-well plate with the cells that had been treated with the drugs was placed under the condition of 37°C and 5% CO2 to be further cultured for 72 hours, and then analyzed by CTG. • ⑦ The CTG reagent was melted and the cell plate was equilibrated to room temperature for 30 minutes. • ⑧ 50 µL of the CTG solution was added to each well. • ⑨ The cell plate was shaken on an orbital shaker for 5 minutes to lyse the cells. • ⑩ The cell plate was placed at room temperature for 20 minutes to stabilize the luminescence signal. The luminescence values were read to collect the data. • ⑪ The data were analyzed using XLFit excel plugin version 5.5.0.5, and fitted with non-linear S-curve regression to obtain the dose-response curves and thus calculate the IC50 values. Y = Bottom + (Top-Bottom)/((1+(IC50/X))^(∧) HillSlope [formula]
as §1
"Max" represents the average value of the cell+DMSO control, and "Min" represents the average value of the medium control+DMSO.

[3] = FGFR4 kinase, TR-FRET, read-out: IC50 (nM) FGFR4
[4] = Ba/F3-FGFR3-BAIAP2L1 cells, 72 hours, CTG
[5] = RT-112, RT112 cells, 72 hours, CTG

T1 sequence (P22455 460-802): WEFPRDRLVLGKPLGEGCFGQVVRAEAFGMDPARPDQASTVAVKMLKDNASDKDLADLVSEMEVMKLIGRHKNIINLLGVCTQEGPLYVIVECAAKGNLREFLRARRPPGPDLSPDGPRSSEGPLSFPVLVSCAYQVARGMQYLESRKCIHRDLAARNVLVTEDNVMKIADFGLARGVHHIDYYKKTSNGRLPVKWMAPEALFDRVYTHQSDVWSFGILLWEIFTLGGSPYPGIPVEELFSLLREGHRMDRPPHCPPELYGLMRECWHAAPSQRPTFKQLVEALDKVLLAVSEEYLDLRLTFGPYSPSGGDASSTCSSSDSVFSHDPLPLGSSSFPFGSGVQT

SMILES	IC50 (FGFR4; [3])	IC50 [1, 4]	IC50 [2, 5]	IC50 ([1]; 72 h)	IC50 ([2]; RT-112, 72 h)	Selectivity (X) FGFR1/FGFR3 [1]	IC50 (FGFR4)
C[C@@H](Oc1ccc2[nH]nc(-c3ccc(S(C)(=N)=O)nc3)c2c1)c1c(Cl)cncc1Cl (stereo partly drawn) [Comparative Example 85, (5-(5-((R)-1-(3,5-dichloropyridin-4-yl)ethoxy)-1H-indazol-3-yl)pyridin-2-yl)(imino)(methyl)-sulfanone, reference compound]	10 to 100 nM			5.4 nM	58.8 nM		
C[C@@H](Oc1cc(F)c2[nH]nc(-c3cnn(CCN4CCOCC4)c3)c2c1)c1c(Cl)cncc1Cl [Example 12, (R)-4-(2-(4-(5-(1-(3,5-dichloropyridin-4-yl)ethoxy)-7-fluoro-1H-indazol-3-yl)-1H-pyrazol-1-yl)ethyl)morph oline]	10 to 100 nM	4.6 nM	43.1 nM			129 X	
C[C@@H](Oc1ccc2[nH]nc(-c3cnn(C)c3)c2n1)c1c(Cl)cncc1Cl [Example 29, (R)-5-(1-(3,5-dichloropyridin-4-yl)ethoxy)-3-(1-methyl-1H-pyrazol-4-yl)-1H-pyrazolo[4,3-b]pyridine]	1 to 10 nM	0.3 nM	3.6 nM			127 X	
C[C@@H](Oc1ccc2[nH]nc(-c3cnn(CCN4CCN(C)C(=O)C4)c3)c2n1)c1c(Cl)cncc1Cl [Example 54, (R)-4-(2-(4-(5-(1-(3,5-dichloropyridin-4-yl)ethoxy)-1H-pyrazolo[4,3-b]pyridin-3-yl)-1H-pyrazol-1-yl)ethyl)-1-methylpiperazin-2-one]		1.2 nM	14 nM			147 X	
CC(Oc1ccc2[nH]nc(-c3cnn(C)c3)c2c1)c1cccc2ncccc12 (stereo not shown) [Example 88, 5-(1-((3-(1-methyl-1H-pyrazol-4-yl)-1H-indazol-5-yl)oxy)ethyl)quin oline]	10 to 100 nM	19 nM	167 nM			180 X	
CC(Oc1ccc2[nH]nc(-c3cnn(C)c3)c2c1)c1cccc2nccnc12 (stereo not shown) [Example 92, 5-(1-((3-(1-methyl-1H-pyrazol-4-yl)-1H-indazol-5-yl)oxy)ethyl)quin oxaline]	1 to 10 nM	2.8 nM	24.3 nM			35 X	
Cc1ccc2ncccc2c1C(C)Oc1ccc2[nH]nc(-c3cnn(C)c3)c2c1 (stereo not shown) [Example 95, 6-methyl-5-(1-((3-(1-methyl-1H-pyrazol-4-yl)-1H-indazol-5-yl)oxy)ethyl)quinolinee]		8 nM	23.4 nM			51 X	10 to 100 nM
Cc1cc2nccnc2c(C(C)Oc2ccc3[nH]nc(-c4cnn(C)c4)c3c2)n1 (stereo not shown) [Example 183, 7-methyl-5-(1-((3-(1-methyl-1H-pyrazol-4-yl)-1H-indazol-5-yl)oxy)ethyl)pyridino [3,4-b]pyrazine]	10 to 100 nM	0.4 nM	9.7 nM			139 X	
COCC(=O)N1CC(n2cc(-c3n[nH]c4ccc(OC(C)c5cccc6nccnc56)cc34)cn2)C1 (stereo not shown) [Example 188, 2-methoxy-1-(3-(4-(5-(1-(quinoxalin-5-yl)ethoxy)-1H-indazol-3-yl)-1H-pyrazol-1-yl)azetidin-1-yl)ethan-1-one]	10 to 100 nM	3.1 nM	10.7 nM			91 X	
CC(=O)N1CC(n2cc(-c3n[nH]c4ccc(OC(C)c5cccc6nccnc56)cc34)cn2)C1 (stereo not shown) [Example 218, 1-(3-(4-(5-(1-(quinoxalin-5-yl)ethoxy)-1H-indazol-3-yl)-1H-pyrazol-1-yl)azetidin-1-yl)ethan-1-one]	10 to 100 nM	8.4 nM	16.7 nM			53 X	
CC(Oc1cc2c(-c3cnn(C)c3)n[nH]c2cc1F)c1cc(Cl)cc2nccnc12 (stereo not shown) [Example 227, 7-chloro-5-(1-((6-fluoro-3-(1-methyl-1H-pyrazol-4-yl)-1H-indazol-5-yl)oxy)ethyl)qu inoxaline]		3.1 nM	34.5 nM			126 X	
CC(Oc1ccc2[nH]nc(-c3cnn(C)c3)c2c1)c1nc(C(F)F)cc2nccnc12 (stereo not shown) [Example 236, 7-(difluoromethyl)-5-(1-((3-(1-methyl-1H-pyrazol-4-yl)-1H-indazol-5-yl)oxy)ethyl)pyridino[3,4-b]pyrazine]	10 to 100 nM	0.9 nM	15.5 nM			182 X	
[2H]C([2H])([2H])c1cc2nccnc2c(C(C)Oc2ccc3[nH]nc(-c4cnn(C)c4)c3c2)n1 (stereo not shown) [Example 241]		0.8 nM	13.5 nM			76 X	1 to 10 nM

The next lines start with results.

IC50 (FGFR4; [3])	IC50 [1, 4]	IC50 [2, 5]	SMILES	IC50 ([1]; 72 h)	IC50 ([2]; RT-112, 72 h)	Selectivity (X) FGFR1/FGFR3 [1]	IC50 (FGFR4)
	0.7 nM	15.9 nM	C[C@@H](Oc1ccc2[nH]nc(-c3cnn(CCN4CCS(=O)(=O)CC4)c3)c2n1)c1c(Cl)cncc1Cl [Example 55, (R)-4-(2-(4-(5-(1-(3,5-dichloropyridin-4-yl)ethoxy)-1H-pyrazolo[4,3-b]pyridin-3-yl)-1H-pyrazol-1-yl)ethyl)thiomorph oline 1,1-dioxide]			126 X	
	10.6 nM	85 nM	CC(Oc1ccc2[nH]nc(-c3cnn(C)c3)c2c1)c1cccn2ncnc12 (stereo not shown) [Example 101, 8-(1-((3-(1-methyl-1H-pyrazol-4-yl)-1H-indazol-5-yl)oxy)ethyl)-[1,2,4]triazolo[1,5-a]pyridine]			23 X	
> 100 nM	4.8 nM	25.5 nM	CC(Oc1ccc2[nH]nc(-c3cnn(C)c3)c2c1)c1c(C(F)F)ccc2ncccc12 (stereo not shown) [Example 127, 6-(difluoromethyl)-5-(1-((3-(1-methyl-1H-pyrazol-4-yl)-1H-indazol-5-yl)oxy)ethyl)quinoline]			195 X	
10 to 100 nM	12.9 nM	37.9 nM	CC(Oc1ccc2[nH]nc(-c3cnn(C)c3)c2c1)c1c(CF)ccc2ncccc12 (stereo not shown) [Example 130, 6-(fluoromethyl)-5-(1-((3-(1-methyl-1H-pyrazol-4-yl)-1H-indazol-5-yl)oxy)ethyl)q uinoline]				
10 to 100 nM	3.4 nM	47.5 nM	CC(Oc1ccc2[nH]nc(-c3cnn(C)c3)c2c1)c1cc(Cl)cc2nccnc12 (stereo not shown) [Example 136, 7-chloro-5-(1-((3-(1-methyl-1H-pyrazol-4-yl)-1H-indazol-5-yl)oxy)ethyl)qu inoxaline]			111 X	
10 to 100 nM	3.8 nM	18.6 nM	CC(Oc1ccc2[nH]nc(-c3cnn(C4CN(C(=O)C(C)(C)O)C4)c3)c2c1)c1cccc2nccnc12 (stereo not shown) [Example 190, 2-hydroxy-2-methyl-1-(3-(4-(5-(1-(quinoxalin-5-yl)ethoxy)-1H-indazol-3-yl)-1H-pyrazol-1-yl)azetidin-1-yl)propan-1-one]			113 X	
